Earlier results as cited in US20240197632A1 (VETERINARY PHARMACY CORPORATION, priority 2022, published 2024).

general solubility property in water: 0.0021 % wt/vol
Structure (SMILES): CC(C)Cc1ccc(C(C)C(=O)O)cc1 (stereo not shown) [Ibuprofen, 2-(4-Isobutylphenyl)propanoic acid]
